Laboratory results published in PubChem BioAssay (NCI).
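Values below derive from 48-hour exposures of cells grown in 96-well plates, with endpoints linearly interpolated between the two concentrations bracketing the appropriate inhibition level. Abbreviation: GI50, concentration required for 50% inhibition of growth. TGI is the concentration that stops growth completely.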

Experiments:
Assay in all cases: DTP human tumour cell line panel, 48 h
[1] = test system: SK-MEL-2 melanoma
[2] = test system: NCI-H460 lung
[3] = test system: SK-MEL-28 melanoma
[4] = test system: SNB-75 CNS
[5] = test system: KM12 colon
[6] = test system: MALME-3M melanoma
[7] = test system: SF-539 CNS
[8] = test system: UACC-257 melanoma
[9] = test system: OVCAR-5 ovarian
[10] = test system: CCRF-CEM leukemia
[11] = test system: HCT-15 colon
[12] = test system: SR leukemia
[13] = test system: A549 NSCLC
[14] = test system: EKVX NSCLC
[15] = test system: MDA-MB-468 breast
[16] = test system: 786-0 renal
[17] = test system: DU-145 prostate
[18] = test system: HS 578T breast
[19] = test system: NCI-H226 lung
[20] = test system: SK-OV-3 ovarian
[21] = test system: HOP-62 NSCLC
[22] = test system: MDA-MB-231 breast
[23] = test system: HCT-116 colon
[24] = test system: HOP-92 NSCLC
[25] = test system: MDA-MB-435
[26] = test system: MOLT-4 leukemia
[27] = test system: HT29 colon
[28] = test system: K-562 leukemia
[29] = test system: NCI-H522 lung
[30] = test system: UO-31 renal
[31] = test system: SF-268 CNS
[32] = test system: TK-10 renal
[33] = test system: NCI/ADR-RES ovarian
[34] = test system: A498 renal
[35] = test system: NCI-H23 lung
[36] = test system: OVCAR-8 ovarian
[37] = test system: SF-295 CNS
[38] = test system: UACC-62 melanoma
[39] = test system: LOX IMVI melanoma
[40] = test system: OVCAR-4 ovarian
[41] = test system: RXF 393 renal
[42] = test system: SK-MEL-5 melanoma
[43] = test system: SW-620 colon
[44] = test system: CAKI-1 renal
[45] = test system: HCC-2998 colon
[46] = test system: SN12C renal
[47] = test system: OVCAR-3 ovarian
[48] = test system: RPMI-8226 leukemia
[49] = test system: M14 melanoma
[50] = test system: COLO 205 colon
[51] = test system: ACHN renal
[52] = test system: SNB-19 CNS
[53] = test system: U251 CNS
[54] = test system: HL-60(TB) leukemia
[55] = test system: PC-3 prostate
[56] = test system: T-47D breast
[57] = test system: MCF7 breast
[58] = test system: IGROV1 ovarian
[59] = test system: BT-549 breast

Molecule `COc1cc(-c2ccc3ncnc(N4CCc5ccc(Cl)cc54)c3c2)cnc1Cl` has a GI50 [1] of 5.12 µM, a TGI [1] of over 100 µM and a GI50 [2] of 2950 nM. The TGI [2] was over 100 µM, the GI50 [3] was 3840 nM and the TGI [3] was 46.7 µM. The GI50 [4] was 1560 nM, the TGI [4] was 7 µM and the GI50 [5] was 3990 nM. It also gave a TGI [5] of over 100000 nM, a GI50 [6] of 4600 nM and a TGI [6] of 43.3 µM. The GI50 [7] was 3060 nM, the TGI [7] was 11.6 µM and the GI50 [8] was 6.32 µM. It also gave a TGI [8] of over 100000 nM, a GI50 [9] of 3290 nM and a TGI [9] of over 100 µM. It also gave a GI50 [10] of 5.7 µM, a TGI [10] of over 100 µM and a GI50 [11] of 3.17 µM. It also gave a TGI [11] of over 100 µM, a GI50 [12] of 4080 nM and a TGI [12] of over 100000 nM. The GI50 [13] was 3030 nM, the TGI [13] was over 100 µM and the GI50 [14] was 1940 nM. It also gave a TGI [14] of over 100 µM, a GI50 [15] of 1260 nM and a TGI [15] of 4470 nM. The GI50 [16] was 3220 nM, the TGI [16] was 27.7 µM and the GI50 [17] was 3210 nM. The TGI [17] was over 100 µM, the GI50 [18] was 1840 nM and the TGI [18] was 7.41 µM. The GI50 [19] was 2390 nM, the TGI [19] was 21.5 µM and the GI50 [20] was 3840 nM. For the same molecule, the TGI [20] was over 100 µM, the GI50 [21] was 6.12 µM and the TGI [21] was 81.3 µM. The GI50 [22] was 3.94 µM, the TGI [22] was 20.8 µM and the GI50 [23] was 2890 nM. For the same molecule, the TGI [23] was over 100 µM, the GI50 [24] was 2110 nM and the TGI [24] was over 100000 nM. It also gave a GI50 [25] of 3320 nM, a TGI [25] of over 100000 nM and a GI50 [26] of 3360 nM. The TGI [26] was over 100 µM, the GI50 [27] was 2880 nM and the TGI [27] was 16.4 µM. It also gave a GI50 [28] of 3830 nM, a TGI [28] of over 100000 nM and a GI50 [29] of 2120 nM. The TGI [29] was 10.1 µM, the GI50 [30] was 1140 nM and the TGI [30] was over 100 µM. It also gave a GI50 [31] of 3290 nM, a TGI [31] of over 100 µM and a GI50 [32] of 2120 nM. The TGI [32] was 7.87 µM, the GI50 [33] was 2.23 µM and the TGI [33] was over 100 µM. It also gave a GI50 [34] of 1540 nM, a TGI [34] of 7.16 µM and a GI50 [35] of 2910 nM. For the same molecule, the TGI [35] was over 100 µM, the GI50 [36] was 3640 nM and the TGI [36] was over 100 µM. The GI50 [37] was 2620 nM, the TGI [37] was 24.6 µM and the GI50 [38] was 2250 nM. It also gave a TGI [38] of over 100000 nM, a GI50 [39] of 2970 nM and a TGI [39] of 29.5 µM. The GI50 [40] was 3120 nM, the TGI [40] was 95.5 µM and the GI50 [41] was 1780 nM. It also gave a TGI [41] of 6.77 µM, a GI50 [42] of 2150 nM and a TGI [42] of 9.36 µM. It also gave a GI50 [43] of 3060 nM, a TGI [43] of over 100 µM and a GI50 [44] of 1.66 µM. The TGI [44] was 12.7 µM, the GI50 [45] was 3460 nM and the TGI [45] was over 100000 nM. For the same molecule, the GI50 [46] was 3340 nM, the TGI [46] was over 100 µM and the GI50 [47] was 2490 nM. The TGI [47] was over 100000 nM, the GI50 [48] was 4440 nM and the TGI [48] was over 100000 nM. It also gave a GI50 [49] of 3880 nM, a TGI [49] of over 100000 nM and a GI50 [50] of 4210 nM. For the same molecule, the TGI [50] was over 100000 nM, the GI50 [51] was 2.4 µM and the TGI [51] was 14.4 µM. The GI50 [52] was 3780 nM, the TGI [52] was 83.6 µM and the GI50 [53] was 4710 nM. For the same molecule, the TGI [53] was over 100000 nM, the GI50 [54] was 2100 nM and the TGI [54] was 9.97 µM. It also gave a GI50 [55] of 2520 nM and a TGI [55] of over 100 µM.
`CC[C@]12C=CCN3CC[C@@]4(c5ccc(OC)cc5N(C)[C@H]4[C@@](O)(C(=O)OC)[C@@H]1OC(=O)CCCC[P+](c1ccc(OC)cc1)(c1ccc(OC)cc1)c1ccc(OC)cc1)[C@@H]32` gave a GI50 [56] of 383 nM, a TGI [56] of 2830 nM and a GI50 [2] of 1150 nM. The TGI [2] was 11.2 µM, the GI50 [3] was 486 nM and the TGI [3] was 1.73 µM. The GI50 [5] was 675 nM, the TGI [5] was 1990 nM and the GI50 [6] was 1130 nM. The TGI [6] was 2.41 µM, the GI50 [7] was 1520 nM and the TGI [7] was 5.44 µM. It also gave a GI50 [8] of 0.792 µM, a TGI [8] of 2310 nM and a GI50 [9] of 2130 nM. It also gave a TGI [9] of 7.15 µM, a GI50 [11] of 8.79 µM and a TGI [11] of 22.3 µM. It also gave a GI50 [12] of 428 nM, a TGI [12] of 1700 nM and a GI50 [13] of 1650 nM. The TGI [13] was 11.5 µM, the GI50 [15] was 264 nM and the TGI [15] was 799 nM. For the same molecule, the GI50 [16] was 2590 nM, the TGI [16] was 8.04 µM and the GI50 [17] was 1600 nM. The TGI [17] was 12.3 µM, the GI50 [18] was 1510 nM and the TGI [18] was 4.99 µM. It also gave a GI50 [19] of 2030 nM, a TGI [19] of 7.49 µM and a GI50 [20] of 1400 nM. For the same molecule, the TGI [20] was 4.52 µM, the GI50 [21] was 2.42 µM and the TGI [21] was 7.12 µM. The GI50 [23] was 1300 nM, the TGI [23] was 7.76 µM and the GI50 [24] was 520 nM. It also gave a TGI [24] of 2640 nM, a GI50 [25] of 521 nM and a TGI [25] of 1830 nM. For the same molecule, the GI50 [26] was 1180 nM, the TGI [26] was 3.21 µM and the GI50 [27] was 511 nM. It also gave a TGI [27] of 2.02 µM, a GI50 [28] of 675 nM and a TGI [28] of 2530 nM. The GI50 [29] was 341 nM, the TGI [29] was 1.25 µM and the GI50 [31] was 1470 nM. For the same molecule, the TGI [31] was 3.49 µM, the GI50 [32] was 1670 nM and the TGI [32] was 3.8 µM. For the same molecule, the GI50 [33] was 20.5 µM, the TGI [33] was 55.9 µM and the GI50 [34] was 2930 nM. For the same molecule, the TGI [34] was 11.4 µM, the GI50 [35] was 1190 nM and the TGI [35] was 4.74 µM. It also gave a GI50 [36] of 1990 nM, a TGI [36] of 9.6 µM and a GI50 [37] of 1970 nM. For the same molecule, the TGI [37] was 5.44 µM, the GI50 [38] was 963 nM and the TGI [38] was 2200 nM. It also gave a GI50 [39] of 1110 nM, a TGI [39] of 2.35 µM and a GI50 [40] of 1570 nM. For the same molecule, the TGI [40] was 11.6 µM, the GI50 [41] was 524 nM and the TGI [41] was 2.04 µM. The GI50 [42] was 1600 nM, the TGI [42] was 2.95 µM and the GI50 [43] was 1060 nM. The TGI [43] was 6.43 µM, the GI50 [57] was 105 nM and the TGI [57] was 225 nM. The GI50 [44] was 15.2 µM, the TGI [44] was 29.8 µM and the GI50 [45] was 617 nM. The TGI [45] was 1850 nM, the GI50 [46] was 1180 nM and the TGI [46] was 3.07 µM. For the same molecule, the GI50 [47] was 634 nM, the TGI [47] was 2330 nM and the GI50 [48] was 299 nM. The TGI [48] was 969 nM, the GI50 [49] was 1200 nM and the TGI [49] was 2740 nM. The GI50 [50] was 214 nM, the TGI [50] was 450 nM and the GI50 [51] was 6.28 µM. For the same molecule, the TGI [51] was 19.7 µM, the GI50 [52] was 484 nM and the TGI [52] was 1.95 µM. For the same molecule, the GI50 [58] was 548 nM, the TGI [58] was 1860 nM and the GI50 [53] was 392 nM. For the same molecule, the TGI [53] was 1450 nM, the GI50 [54] was 234 nM and the TGI [54] was 0.674 µM. The GI50 [55] was 562 nM, the TGI [55] was 5.9 µM and the GI50 [59] was 1250 nM. The TGI [59] was 2600 nM.
